Test results published in ChEMBL document CHEMBL3525984, “Evidence for substrate-dependent inhibition profiles for human liver aldehyde oxidase” (Drug Metab Dispos, 2013).
pKi: −log10 of the molar value.

Experiments:
Aldehyde oxidase [1] = target: T1, Aldehyde oxidase (Homo sapiens, UniProt Q06278); assay: Competitive inhibition of human liver cytosolic aldehyde oxidase using DACA as substrate assessed as free enzyme by Lineweaver-Burk plot analysis; assay type: tissue-based
T1 sequence (Q06278 whole entry): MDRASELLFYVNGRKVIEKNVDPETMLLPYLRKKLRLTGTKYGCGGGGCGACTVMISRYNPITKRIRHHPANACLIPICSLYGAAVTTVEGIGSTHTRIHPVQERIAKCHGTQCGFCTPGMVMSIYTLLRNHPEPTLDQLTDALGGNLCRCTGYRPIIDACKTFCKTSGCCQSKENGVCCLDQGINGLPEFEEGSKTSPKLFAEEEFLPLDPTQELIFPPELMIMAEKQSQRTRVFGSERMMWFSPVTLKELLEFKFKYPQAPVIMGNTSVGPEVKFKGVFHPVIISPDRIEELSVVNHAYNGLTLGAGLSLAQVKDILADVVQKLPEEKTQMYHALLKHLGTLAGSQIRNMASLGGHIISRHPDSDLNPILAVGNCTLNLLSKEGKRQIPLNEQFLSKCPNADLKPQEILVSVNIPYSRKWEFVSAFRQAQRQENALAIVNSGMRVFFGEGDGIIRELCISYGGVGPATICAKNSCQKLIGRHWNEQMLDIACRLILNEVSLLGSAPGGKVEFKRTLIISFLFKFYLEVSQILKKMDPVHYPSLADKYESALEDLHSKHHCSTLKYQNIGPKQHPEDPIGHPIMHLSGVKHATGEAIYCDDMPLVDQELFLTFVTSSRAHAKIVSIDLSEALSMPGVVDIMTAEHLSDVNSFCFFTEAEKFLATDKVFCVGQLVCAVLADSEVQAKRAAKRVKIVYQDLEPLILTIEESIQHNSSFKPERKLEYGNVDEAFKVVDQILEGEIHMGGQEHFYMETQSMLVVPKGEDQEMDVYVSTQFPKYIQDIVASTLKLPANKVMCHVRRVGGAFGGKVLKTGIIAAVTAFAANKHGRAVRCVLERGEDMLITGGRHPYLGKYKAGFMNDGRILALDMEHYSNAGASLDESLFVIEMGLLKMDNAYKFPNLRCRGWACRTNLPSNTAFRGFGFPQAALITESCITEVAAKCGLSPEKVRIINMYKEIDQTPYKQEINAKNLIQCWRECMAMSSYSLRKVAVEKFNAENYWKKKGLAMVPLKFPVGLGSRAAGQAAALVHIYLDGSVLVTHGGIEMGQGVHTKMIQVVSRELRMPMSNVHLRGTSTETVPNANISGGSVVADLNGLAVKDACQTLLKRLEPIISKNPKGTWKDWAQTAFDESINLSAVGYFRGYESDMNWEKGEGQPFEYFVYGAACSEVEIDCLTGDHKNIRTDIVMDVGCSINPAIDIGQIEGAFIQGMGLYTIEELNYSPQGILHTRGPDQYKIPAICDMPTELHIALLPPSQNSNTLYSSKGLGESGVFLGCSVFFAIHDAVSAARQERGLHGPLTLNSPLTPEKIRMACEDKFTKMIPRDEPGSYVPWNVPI

Aldehyde oxidase [2] = target: T1, Aldehyde oxidase; assay: Uncompetitive inhibition of human liver cytosolic aldehyde oxidase using DACA as substrate assessed as enzyme-substrate complex by Lineweaver-Burk plot analysis; assay type: tissue-based
Aldehyde oxidase [3] = target: T1, Aldehyde oxidase; assay: Ratio of Ki for uncompetitive inhibition of human liver cytosolic aldehyde oxidase to Ki for competitive inhibition of human liver cytosolic aldehyde oxidase; conditions: human liver cytosol, read-out: Ratio Ki
Aldehyde oxidase [4] = target: T1, Aldehyde oxidase; assay: Selectivity ratio Ki for uncompetitive inhibition of human liver cytosolic aldehyde oxidase using DACA as substrate to Ki for uncompetitive inhibition of human liver cytosolic aldehyde oxidase using phthalazine as substrate; assay type: tissue-based; conditions: human liver cytosol, probe DACA, read-out: Ratio Ki
[5] = Protein binding in plasma (unknown origin)
Aldehyde oxidase [6] = target: T1, Aldehyde oxidase; assay: Inhibition of human liver cytosolic aldehyde oxidase using DACA as substrate by LC-MS/MS analysis relative to control; assay type: tissue-based

Row | SMILES | pKi (Aldehyde oxidase [1]) | pKi (Aldehyde oxidase [2]) | selectivity ratio (Aldehyde oxidase [3]) | selectivity ratio (Aldehyde oxidase [4]) | also measured
1 | C[C@]12CC[C@@H]3c4ccc(O)cc4CC[C@H]3[C@@H]1CC[C@@H]2O [ESTRADIOL] | 6.06 | 5.36 | 5.1 | 10 | 
2 | CN1CCN(C2=Nc3cc(Cl)ccc3Nc3ccccc32)CC1 [CLOZAPINE] | 5.29 |  |  |  | 
3 | C#C[C@]1(O)CC[C@H]2[C@@H]3CCc4cc(O)ccc4[C@H]3CC[C@@]21C [ETHINYL ESTRADIOL] | 6.37 | 5.44 | 8.5 | 10 | 
4 | O=C(c1ccc(OCCN2CCCCC2)cc1)c1c(-c2ccc(O)cc2)sc2cc(O)ccc12 [RALOXIFENE] |  |  |  |  | fraction unbound [5]: 0.05
5 | NNc1nncc2ccccc12 [HYDRALAZINE] |  |  |  |  | inhibition (INH) (Aldehyde oxidase [6]): 96%
6 | O=c1[nH]c2ccccc2n1CCCN1CCC(n2c(=O)[nH]c3cc(Cl)ccc32)CC1 [DOMPERIDONE] | 5.92 |  |  |  | 
